# Results taken from PubChem BioAssay (NCI).
#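 Dose response: 5 concentrations. Exposure: 48 h. Format: 96-well plates. Endpoint: linear interpolation; highest concentration if not reached. TGI marks complete inhibition of growth.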
# What was measured:
# Experiment in all cases: inhibition of tumour cell growth, NCI panel, 48 h
# SNB-78 CNS = system: SNB-78 CNS
# OVCAR-8 ovarian = system: OVCAR-8 ovarian
# OVCAR-5 ovarian = system: OVCAR-5 ovarian
# UACC-257 melanoma = system: UACC-257 melanoma
# LOX IMVI melanoma = system: LOX IMVI melanoma
# U251 CNS = system: U251 CNS
# A498 renal = system: A498 renal
# SF-295 CNS = system: SF-295 CNS
# HL-60(TB) leukemia = system: HL-60(TB) leukemia
# MOLT-4 leukemia = system: MOLT-4 leukemia
# M14 melanoma = system: M14 melanoma
# RPMI-8226 leukemia = system: RPMI-8226 leukemia
# SR leukemia = system: SR leukemia
# NCI-H226 lung = system: NCI-H226 lung
# DMS 273 small cell lung = system: DMS 273 small cell lung
# SK-MEL-5 melanoma = system: SK-MEL-5 melanoma
# NCI-H23 lung = system: NCI-H23 lung
# CCRF-CEM leukemia = system: CCRF-CEM leukemia
# HOP-92 NSCLC = system: HOP-92 NSCLC
# NCI-H460 lung = system: NCI-H460 lung
# KM12 colon = system: KM12 colon
# COLO 205 colon = system: COLO 205 colon
# ACHN renal = system: ACHN renal
# K-562 leukemia = system: K-562 leukemia
# HT29 colon = system: HT29 colon
# 786-0 renal = system: 786-0 renal
# RXF 393 renal = system: RXF 393 renal
# HCT-15 colon = system: HCT-15 colon
# SNB-19 CNS = system: SNB-19 CNS
# KM20L2 colon = system: KM20L2 colon
# SF-539 CNS = system: SF-539 CNS
# SNB-75 CNS = system: SNB-75 CNS
# IGROV1 ovarian = system: IGROV1 ovarian
# HOP-18 NSCLC = system: HOP-18 NSCLC
# SF-268 CNS = system: SF-268 CNS
# NCI-H522 lung = system: NCI-H522 lung
# HCT-116 colon = system: HCT-116 colon
# SN12C renal = system: SN12C renal
# OVCAR-4 ovarian = system: OVCAR-4 ovarian
# A549 NSCLC = system: A549 NSCLC
# EKVX NSCLC = system: EKVX NSCLC
# LXFL 529 NSCLC = system: LXFL 529 NSCLC
# UACC-62 melanoma = system: UACC-62 melanoma
# M19-MEL melanoma = system: M19-MEL melanoma
# DLD-1 colon = system: DLD-1 colon
# SK-MEL-28 melanoma = system: SK-MEL-28 melanoma
# SW-620 colon = system: SW-620 colon
# HOP-62 NSCLC = system: HOP-62 NSCLC
# DMS 114 small cell lung = system: DMS 114 small cell lung
# SK-OV-3 ovarian = system: SK-OV-3 ovarian
# UO-31 renal = system: UO-31 renal
# MALME-3M melanoma = system: MALME-3M melanoma
# OVCAR-3 ovarian = system: OVCAR-3 ovarian
# SK-MEL-2 melanoma = system: SK-MEL-2 melanoma
# TK-10 renal = system: TK-10 renal
structure (smiles),measurement,setting,value
Cn1nc(-c2cccc(-c3nn(C)c(=NCCO)s3)n2)sc1=NCCO,TGI,SNB-78 CNS,> 100 µM
same,TGI,OVCAR-8 ovarian,> 100 µM
same,TGI,OVCAR-5 ovarian,> 100 µM
same,TGI,UACC-257 melanoma,> 100 µM
same,TGI,LOX IMVI melanoma,> 100 µM
same,TGI,U251 CNS,> 100 µM
same,TGI,A498 renal,> 100 µM
same,TGI,SF-295 CNS,> 100 µM
same,TGI,HL-60(TB) leukemia,> 100 µM
same,TGI,MOLT-4 leukemia,> 100 µM
same,TGI,M14 melanoma,> 100 µM
same,TGI,RPMI-8226 leukemia,> 100 µM
same,TGI,SR leukemia,> 100 µM
same,TGI,NCI-H226 lung,> 100 µM
same,TGI,DMS 273 small cell lung,> 100 µM
same,TGI,SK-MEL-5 melanoma,> 100 µM
same,TGI,NCI-H23 lung,> 100 µM
same,TGI,CCRF-CEM leukemia,> 100 µM
same,TGI,HOP-92 NSCLC,> 100 µM
same,TGI,NCI-H460 lung,> 100 µM
same,TGI,KM12 colon,> 100 µM
same,TGI,COLO 205 colon,> 100 µM
same,TGI,ACHN renal,> 100 µM
same,TGI,K-562 leukemia,> 100 µM
same,TGI,HT29 colon,> 100 µM
same,TGI,786-0 renal,> 100 µM
same,TGI,RXF 393 renal,> 100 µM
same,TGI,HCT-15 colon,> 100 µM
same,TGI,SNB-19 CNS,> 100 µM
same,TGI,KM20L2 colon,> 100 µM
same,TGI,SF-539 CNS,> 100 µM
same,TGI,SNB-75 CNS,> 100 µM
same,TGI,IGROV1 ovarian,> 100 µM
same,TGI,HOP-18 NSCLC,> 100 µM
same,TGI,SF-268 CNS,> 100 µM
same,TGI,NCI-H522 lung,> 100 µM
same,TGI,HCT-116 colon,> 100 µM
same,TGI,SN12C renal,> 100 µM
same,TGI,OVCAR-4 ovarian,> 100 µM
same,TGI,A549 NSCLC,> 100 µM
same,TGI,EKVX NSCLC,> 100 µM
same,TGI,LXFL 529 NSCLC,> 100 µM
same,TGI,UACC-62 melanoma,> 100 µM
same,TGI,M19-MEL melanoma,> 100 µM
same,TGI,DLD-1 colon,> 100 µM
same,TGI,SK-MEL-28 melanoma,> 100 µM
same,TGI,SW-620 colon,> 100 µM
same,TGI,HOP-62 NSCLC,> 100 µM
same,TGI,DMS 114 small cell lung,> 100 µM
CN(C)CC/C(=N\Nc1ccc(Cl)cc1)c1ccccc1,TGI,SNB-78 CNS,5.13 µM
same,TGI,OVCAR-8 ovarian,11.5 µM
same,TGI,OVCAR-5 ovarian,2.66 µM
same,TGI,UACC-257 melanoma,3.35 µM
same,TGI,LOX IMVI melanoma,0.691 µM
same,TGI,U251 CNS,1.74 µM
same,TGI,A498 renal,10.8 µM
same,TGI,SF-295 CNS,1.25 µM
same,TGI,HL-60(TB) leukemia,2.17 µM
same,TGI,MOLT-4 leukemia,10.2 µM
same,TGI,M14 melanoma,3.17 µM
same,TGI,RPMI-8226 leukemia,3.13 µM
same,TGI,SR leukemia,4.4 µM
same,TGI,SK-OV-3 ovarian,7.04 µM
same,TGI,UO-31 renal,0.986 µM
same,TGI,DMS 273 small cell lung,1.61 µM
same,TGI,SK-MEL-5 melanoma,3.27 µM
same,TGI,NCI-H23 lung,3.93 µM
same,TGI,CCRF-CEM leukemia,11.2 µM
same,TGI,NCI-H460 lung,2.45 µM
same,TGI,KM12 colon,2.93 µM
same,TGI,COLO 205 colon,3.27 µM
same,TGI,ACHN renal,2.59 µM
same,TGI,K-562 leukemia,1.03 µM
same,TGI,HT29 colon,3 µM
same,TGI,786-0 renal,3.88 µM
same,TGI,RXF 393 renal,10.3 µM
same,TGI,MALME-3M melanoma,3.95 µM
same,TGI,HCT-15 colon,1.23 µM
same,TGI,SNB-19 CNS,6.91 µM
same,TGI,KM20L2 colon,0.349 µM
same,TGI,SF-539 CNS,3.65 µM
same,TGI,SNB-75 CNS,6.45 µM
same,TGI,IGROV1 ovarian,4.67 µM
same,TGI,HOP-18 NSCLC,7.78 µM
same,TGI,SF-268 CNS,3.67 µM
same,TGI,NCI-H522 lung,3.78 µM
same,TGI,HCT-116 colon,2.6 µM
same,TGI,OVCAR-3 ovarian,3.15 µM
same,TGI,SN12C renal,4.13 µM
same,TGI,OVCAR-4 ovarian,7.05 µM
same,TGI,A549 NSCLC,3.29 µM
same,TGI,EKVX NSCLC,4.35 µM
same,TGI,LXFL 529 NSCLC,0.373 µM
same,TGI,UACC-62 melanoma,2.07 µM
same,TGI,M19-MEL melanoma,3.2 µM
same,TGI,SK-MEL-2 melanoma,4.58 µM
same,TGI,TK-10 renal,2.32 µM
same,TGI,DLD-1 colon,3.74 µM
same,TGI,SK-MEL-28 melanoma,2.92 µM
same,TGI,SW-620 colon,2.37 µM
same,TGI,HOP-62 NSCLC,3.62 µM
same,TGI,DMS 114 small cell lung,4.45 µM
